Measured values reported in article PMC12136037, “Type II kinase inhibitors that target Parkinson’s disease–associated LRRK2” (Science Advances, 2025).

Columns and labels:
Assay in all cases: DSF 100 kinase selectivity screen;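 also: compound tested at 20 µM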
Type in all cases: binding
[1] = target: T1, ~100 representative kinases (Homo sapiens, UniProt O00444); details: protein PLK4; average of three replicates
T1 construct: Recombinant protein kinase domains with a concentration of 2 μM
T1 sequence (O00444 1-970): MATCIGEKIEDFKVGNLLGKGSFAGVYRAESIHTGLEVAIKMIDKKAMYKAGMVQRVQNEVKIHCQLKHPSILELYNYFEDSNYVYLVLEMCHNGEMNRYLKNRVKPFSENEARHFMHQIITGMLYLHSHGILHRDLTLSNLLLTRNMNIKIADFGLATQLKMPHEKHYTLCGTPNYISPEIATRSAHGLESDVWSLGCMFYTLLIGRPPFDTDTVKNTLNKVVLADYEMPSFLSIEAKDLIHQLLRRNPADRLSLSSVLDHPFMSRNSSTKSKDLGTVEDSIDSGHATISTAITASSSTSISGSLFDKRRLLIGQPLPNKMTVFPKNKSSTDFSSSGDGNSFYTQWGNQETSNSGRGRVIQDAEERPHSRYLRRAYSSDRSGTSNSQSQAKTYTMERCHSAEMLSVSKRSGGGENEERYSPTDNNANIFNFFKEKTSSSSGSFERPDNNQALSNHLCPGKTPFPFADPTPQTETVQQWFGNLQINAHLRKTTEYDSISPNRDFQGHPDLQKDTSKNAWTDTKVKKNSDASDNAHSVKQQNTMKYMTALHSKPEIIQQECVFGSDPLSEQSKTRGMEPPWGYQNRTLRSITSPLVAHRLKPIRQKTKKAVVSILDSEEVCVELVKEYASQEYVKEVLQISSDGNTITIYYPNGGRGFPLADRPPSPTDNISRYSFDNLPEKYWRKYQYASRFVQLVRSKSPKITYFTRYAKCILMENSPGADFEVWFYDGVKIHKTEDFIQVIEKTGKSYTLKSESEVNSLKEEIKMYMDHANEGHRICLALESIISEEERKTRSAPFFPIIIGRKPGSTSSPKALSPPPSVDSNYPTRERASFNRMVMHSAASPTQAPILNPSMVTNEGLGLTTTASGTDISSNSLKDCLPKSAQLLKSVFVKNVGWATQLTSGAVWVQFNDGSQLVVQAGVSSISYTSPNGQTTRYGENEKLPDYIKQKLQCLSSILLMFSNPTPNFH
Procedure, shortened: (§1)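 Each kinase domain, at 2 μM, is mixed with 20 μM test compound and SYPRO Orange in Hepes (20 mM, pH 7.5) with 500 mM NaCl. Temperature is then raised at 3°C/min and fluorescence-monitored unfolding yields the melting temperature change, ΔTm in degrees Celsius.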

[2] = target: T2, ~100 representative kinases (Homo sapiens, UniProt P07332); details: protein FESA; average of three replicates
T2 construct: Recombinant protein kinase domains with a concentration of 2 μM
T2 sequence (P07332 whole entry, the tested form may be a part): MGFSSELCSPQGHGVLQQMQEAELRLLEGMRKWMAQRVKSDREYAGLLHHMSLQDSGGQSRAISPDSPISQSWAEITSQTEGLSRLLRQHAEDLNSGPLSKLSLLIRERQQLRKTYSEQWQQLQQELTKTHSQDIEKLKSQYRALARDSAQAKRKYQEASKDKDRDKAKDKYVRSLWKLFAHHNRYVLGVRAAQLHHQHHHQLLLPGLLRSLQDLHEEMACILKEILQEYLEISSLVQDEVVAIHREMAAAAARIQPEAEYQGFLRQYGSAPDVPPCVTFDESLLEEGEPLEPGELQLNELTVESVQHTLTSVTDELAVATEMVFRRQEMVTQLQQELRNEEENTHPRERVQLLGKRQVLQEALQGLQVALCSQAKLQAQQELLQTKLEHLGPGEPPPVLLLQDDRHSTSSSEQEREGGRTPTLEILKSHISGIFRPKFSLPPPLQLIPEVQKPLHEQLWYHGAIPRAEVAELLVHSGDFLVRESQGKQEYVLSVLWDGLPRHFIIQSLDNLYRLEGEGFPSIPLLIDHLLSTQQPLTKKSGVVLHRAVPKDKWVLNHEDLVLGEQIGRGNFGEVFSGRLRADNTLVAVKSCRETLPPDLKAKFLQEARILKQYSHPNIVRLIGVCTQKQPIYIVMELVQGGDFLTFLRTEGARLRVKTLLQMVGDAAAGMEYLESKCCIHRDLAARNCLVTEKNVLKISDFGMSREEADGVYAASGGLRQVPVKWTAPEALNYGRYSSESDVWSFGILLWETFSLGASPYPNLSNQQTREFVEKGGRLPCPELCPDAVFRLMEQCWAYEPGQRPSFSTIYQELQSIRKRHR
Procedure, shortened: as §1

[3] = target: T3, ~100 representative kinases (Homo sapiens, UniProt P28482); details: protein MAPK1; average of three replicates
T3 construct: Recombinant protein kinase domains with a concentration of 2 μM
T3 sequence (P28482 whole entry, the tested form may be a part): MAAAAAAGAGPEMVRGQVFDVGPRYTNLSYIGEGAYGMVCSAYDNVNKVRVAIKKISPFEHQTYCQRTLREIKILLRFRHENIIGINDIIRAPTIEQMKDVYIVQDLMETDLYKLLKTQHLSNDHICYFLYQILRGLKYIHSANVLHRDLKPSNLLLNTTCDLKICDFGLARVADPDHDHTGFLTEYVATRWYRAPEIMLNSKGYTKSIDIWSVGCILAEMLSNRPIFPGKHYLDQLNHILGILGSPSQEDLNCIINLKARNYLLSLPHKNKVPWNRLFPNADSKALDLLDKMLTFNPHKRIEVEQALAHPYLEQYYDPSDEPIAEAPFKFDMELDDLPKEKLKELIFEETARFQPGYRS
Procedure, shortened: as §1

[4] = target: T4, ~100 representative kinases (Homo sapiens, UniProt P29317); details: Protein EPHA2; average of three replicates
T4 construct: Recombinant protein kinase domains with a concentration of 2 μM
T4 sequence (P29317 24-976): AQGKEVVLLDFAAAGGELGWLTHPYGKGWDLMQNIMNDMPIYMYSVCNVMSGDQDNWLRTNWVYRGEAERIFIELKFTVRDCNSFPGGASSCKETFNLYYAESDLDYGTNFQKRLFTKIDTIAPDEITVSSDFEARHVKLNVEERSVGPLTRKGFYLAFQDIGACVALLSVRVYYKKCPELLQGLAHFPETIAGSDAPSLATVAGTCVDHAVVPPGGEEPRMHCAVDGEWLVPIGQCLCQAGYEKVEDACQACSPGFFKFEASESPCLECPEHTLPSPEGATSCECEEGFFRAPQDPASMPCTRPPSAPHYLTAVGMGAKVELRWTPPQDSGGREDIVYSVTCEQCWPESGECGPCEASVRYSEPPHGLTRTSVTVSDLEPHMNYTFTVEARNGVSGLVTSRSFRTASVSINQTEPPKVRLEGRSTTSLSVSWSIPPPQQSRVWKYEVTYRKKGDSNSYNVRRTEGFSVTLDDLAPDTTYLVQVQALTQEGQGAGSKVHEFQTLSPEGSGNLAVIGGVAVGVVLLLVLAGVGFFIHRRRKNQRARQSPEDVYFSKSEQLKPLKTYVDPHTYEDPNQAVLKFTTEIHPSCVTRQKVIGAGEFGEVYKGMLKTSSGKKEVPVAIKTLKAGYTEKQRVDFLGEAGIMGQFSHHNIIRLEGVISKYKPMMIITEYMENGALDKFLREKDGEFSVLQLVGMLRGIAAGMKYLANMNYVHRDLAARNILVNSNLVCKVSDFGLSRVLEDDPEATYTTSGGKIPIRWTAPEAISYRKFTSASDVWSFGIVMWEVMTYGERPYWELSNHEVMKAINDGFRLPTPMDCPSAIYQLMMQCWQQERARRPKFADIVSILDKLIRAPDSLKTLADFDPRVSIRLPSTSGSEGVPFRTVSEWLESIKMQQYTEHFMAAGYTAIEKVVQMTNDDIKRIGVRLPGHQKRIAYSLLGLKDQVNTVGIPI
Procedure, shortened: as §1

[5] = target: T5, ~100 representative kinases (Homo sapiens, UniProt P49841); details: protein GSK3B; average of three replicates
T5 construct: Recombinant protein kinase domains with a concentration of 2 μM
T5 sequence (P49841 whole entry, the tested form may be a part): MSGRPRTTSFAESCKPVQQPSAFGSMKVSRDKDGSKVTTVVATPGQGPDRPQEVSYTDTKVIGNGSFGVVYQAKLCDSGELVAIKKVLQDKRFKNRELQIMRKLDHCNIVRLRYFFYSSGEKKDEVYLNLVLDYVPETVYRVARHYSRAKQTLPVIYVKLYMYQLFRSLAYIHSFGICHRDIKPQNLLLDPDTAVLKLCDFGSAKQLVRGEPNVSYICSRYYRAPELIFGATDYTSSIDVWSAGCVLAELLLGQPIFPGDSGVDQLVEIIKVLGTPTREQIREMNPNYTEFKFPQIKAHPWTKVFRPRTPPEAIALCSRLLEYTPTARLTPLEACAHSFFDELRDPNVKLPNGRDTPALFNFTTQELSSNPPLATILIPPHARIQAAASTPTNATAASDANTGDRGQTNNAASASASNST
Procedure, shortened: as §1

[6] = target: T6, ~100 representative kinases (Homo sapiens, UniProt P54764); details: Protein EPHA4; average of three replicates
T6 construct: Recombinant protein kinase domains with a concentration of 2 μM
T6 sequence (P54764 20-986): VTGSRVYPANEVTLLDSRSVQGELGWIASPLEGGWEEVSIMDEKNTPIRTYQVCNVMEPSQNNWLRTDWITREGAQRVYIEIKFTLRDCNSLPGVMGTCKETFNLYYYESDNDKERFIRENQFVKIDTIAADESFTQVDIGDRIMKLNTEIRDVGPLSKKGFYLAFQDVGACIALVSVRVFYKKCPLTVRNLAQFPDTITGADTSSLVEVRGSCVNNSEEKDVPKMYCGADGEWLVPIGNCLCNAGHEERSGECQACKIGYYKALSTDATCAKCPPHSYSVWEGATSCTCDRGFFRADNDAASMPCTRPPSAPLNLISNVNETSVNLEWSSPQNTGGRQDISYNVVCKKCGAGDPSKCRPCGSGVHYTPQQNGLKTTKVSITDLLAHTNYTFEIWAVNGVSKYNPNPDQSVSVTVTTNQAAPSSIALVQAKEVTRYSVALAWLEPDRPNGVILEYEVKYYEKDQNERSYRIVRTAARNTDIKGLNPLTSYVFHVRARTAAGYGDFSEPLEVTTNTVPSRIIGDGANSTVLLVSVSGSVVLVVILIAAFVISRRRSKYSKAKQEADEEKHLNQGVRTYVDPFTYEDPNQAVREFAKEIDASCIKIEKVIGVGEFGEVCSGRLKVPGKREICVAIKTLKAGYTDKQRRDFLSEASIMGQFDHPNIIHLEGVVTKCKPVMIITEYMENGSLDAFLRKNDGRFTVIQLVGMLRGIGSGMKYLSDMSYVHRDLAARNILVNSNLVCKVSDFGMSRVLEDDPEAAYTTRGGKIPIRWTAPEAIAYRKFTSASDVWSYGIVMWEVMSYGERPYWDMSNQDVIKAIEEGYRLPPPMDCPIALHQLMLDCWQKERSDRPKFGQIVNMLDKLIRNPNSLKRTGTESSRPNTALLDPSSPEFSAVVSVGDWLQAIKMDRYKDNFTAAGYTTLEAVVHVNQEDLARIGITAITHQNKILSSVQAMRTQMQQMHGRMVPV
Procedure, shortened: as §1

[7] = target: T7, ~100 representative kinases (Homo sapiens, UniProt P55201); details: Protein BRPF1; average of three replicates
T7 construct: Recombinant protein kinase domains with a concentration of 2 μM
T7 sequence (P55201 1-1214): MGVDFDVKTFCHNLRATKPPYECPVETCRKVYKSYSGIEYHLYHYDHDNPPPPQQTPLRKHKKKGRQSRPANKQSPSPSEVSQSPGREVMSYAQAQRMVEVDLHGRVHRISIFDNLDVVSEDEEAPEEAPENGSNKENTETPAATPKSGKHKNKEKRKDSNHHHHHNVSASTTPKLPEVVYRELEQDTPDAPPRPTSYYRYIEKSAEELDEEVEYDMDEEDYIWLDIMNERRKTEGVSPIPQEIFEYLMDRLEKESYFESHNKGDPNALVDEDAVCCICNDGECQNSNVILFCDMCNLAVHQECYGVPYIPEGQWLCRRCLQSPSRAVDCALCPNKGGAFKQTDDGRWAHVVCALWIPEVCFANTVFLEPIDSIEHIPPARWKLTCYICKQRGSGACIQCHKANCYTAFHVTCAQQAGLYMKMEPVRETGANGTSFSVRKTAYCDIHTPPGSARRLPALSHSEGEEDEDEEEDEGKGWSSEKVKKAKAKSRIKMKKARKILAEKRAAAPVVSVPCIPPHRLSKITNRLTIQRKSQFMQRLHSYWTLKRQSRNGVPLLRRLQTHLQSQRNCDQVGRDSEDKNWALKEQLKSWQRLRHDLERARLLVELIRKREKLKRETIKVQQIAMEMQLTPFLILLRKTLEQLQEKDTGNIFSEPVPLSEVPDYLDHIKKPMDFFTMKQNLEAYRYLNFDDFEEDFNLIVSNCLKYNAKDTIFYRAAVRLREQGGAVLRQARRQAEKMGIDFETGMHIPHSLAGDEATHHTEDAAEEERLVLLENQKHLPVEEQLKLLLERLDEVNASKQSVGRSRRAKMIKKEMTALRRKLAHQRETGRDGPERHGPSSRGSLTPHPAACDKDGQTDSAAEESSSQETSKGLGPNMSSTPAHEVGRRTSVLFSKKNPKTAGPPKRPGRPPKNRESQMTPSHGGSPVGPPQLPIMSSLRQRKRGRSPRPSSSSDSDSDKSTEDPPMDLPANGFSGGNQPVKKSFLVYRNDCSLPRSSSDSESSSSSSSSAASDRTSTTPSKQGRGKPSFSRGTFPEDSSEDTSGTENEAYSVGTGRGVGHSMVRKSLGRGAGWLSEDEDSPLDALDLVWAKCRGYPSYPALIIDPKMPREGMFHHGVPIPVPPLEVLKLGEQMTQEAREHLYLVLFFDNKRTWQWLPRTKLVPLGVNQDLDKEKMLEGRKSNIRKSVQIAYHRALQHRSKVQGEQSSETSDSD
Procedure, shortened: as §1

[8] = target: T8, ~100 representative kinases (Homo sapiens, UniProt P68400); details: Protein CK2A1; average of three replicates
T8 construct: Recombinant protein kinase domains with a concentration of 2 μM
T8 sequence (P68400 whole entry, the tested form may be a part): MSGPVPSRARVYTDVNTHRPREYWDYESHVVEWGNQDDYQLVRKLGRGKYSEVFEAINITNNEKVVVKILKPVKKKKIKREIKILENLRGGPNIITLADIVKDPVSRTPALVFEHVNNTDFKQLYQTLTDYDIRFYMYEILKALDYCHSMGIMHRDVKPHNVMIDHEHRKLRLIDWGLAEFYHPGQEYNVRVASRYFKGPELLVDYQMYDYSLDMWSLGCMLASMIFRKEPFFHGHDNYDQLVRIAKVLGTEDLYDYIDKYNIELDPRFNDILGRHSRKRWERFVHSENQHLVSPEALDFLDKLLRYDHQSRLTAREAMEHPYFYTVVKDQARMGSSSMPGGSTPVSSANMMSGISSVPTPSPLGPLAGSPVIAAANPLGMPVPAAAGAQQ
Procedure, shortened: as §1

[9] = target: T9, ~100 representative kinases (Homo sapiens, UniProt Q13557); details: Protein CAMK2D; average of three replicates
T9 construct: Recombinant protein kinase domains with a concentration of 2 μM
T9 sequence (Q13557 whole entry, the tested form may be a part): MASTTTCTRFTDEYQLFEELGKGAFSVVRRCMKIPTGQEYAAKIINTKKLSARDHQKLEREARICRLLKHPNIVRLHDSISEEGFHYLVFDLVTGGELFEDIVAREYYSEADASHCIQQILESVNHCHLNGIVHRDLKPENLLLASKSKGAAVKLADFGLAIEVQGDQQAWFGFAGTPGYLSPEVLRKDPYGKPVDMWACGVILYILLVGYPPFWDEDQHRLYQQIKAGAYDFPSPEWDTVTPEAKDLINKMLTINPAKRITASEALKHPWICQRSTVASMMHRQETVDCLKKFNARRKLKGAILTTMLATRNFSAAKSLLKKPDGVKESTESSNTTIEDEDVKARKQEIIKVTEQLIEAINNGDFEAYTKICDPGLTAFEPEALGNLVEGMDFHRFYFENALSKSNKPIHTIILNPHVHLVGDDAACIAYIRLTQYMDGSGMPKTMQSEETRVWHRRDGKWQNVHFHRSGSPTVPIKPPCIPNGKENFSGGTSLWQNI
Procedure, shortened: as §1

SMILES | dTm [1] [K] | dTm [2] [K] | dTm [3] [K] | dTm [4] [K] | dTm [5] [K] | dTm [6] [K] | dTm [7] [K] | dTm [8] [K] | dTm [9] [K]
CC(C)(C)c1cccc(NC(=O)C2(C(=O)Nc3cccc(-c4c[nH]c5ncnc(N6CCOCC6)c45)c3)CC2)c1 [Compound 22] | 9.02 | 7.02 | 0.30 | 3.30 | 6.13 | 2.71 | 1.91 | -1.17 | 0.84
O=C(Nc1cccc(-c2c[nH]c3ncnc(N4CCOCC4)c23)c1)C1(C(=O)Nc2ccc(F)cc2F)CC1 [Compound 23] | 7.20 | 4.70 | -0.16 | 4.60 | 3.90 | 1.15 | 0.18 | -0.33 | 0.16
O=C(Nc1cc(F)cc(Br)c1)C1(C(=O)Nc2cccc(-c3c[nH]c4ncnc(N5CCOCC5)c34)c2)CC1 [Compound 27] | 0.00 | 3.58 | 0.0359 | 0.41 | 3.16 | 1.53 | 2.67 | -1.92 | 0.42
O=C(Nc1ccccc1)C1(C(=O)Nc2cccc(-c3c[nH]c4ncnc(N5CCOCC5)c34)c2)CC1 [Compound 12] | 6.79 | 6.39 | 0.22 | 5.20 | 5.87 | 1.72 | -0.42 | 0.00 | 0.39
Cc1ccc(NC(=O)C2(C(=O)Nc3cccc(-c4c[nH]c5ncnc(N6CCOCC6)c45)c3)CC2)cc1 [Compound 14] | 7.55 | 6.21 | -0.09 | 7.05 | 4.34 | 2.64 | -0.72 | 1.79 | 0.26
O=C(Nc1ccc(Cl)cc1)C1(C(=O)Nc2cccc(-c3c[nH]c4ncnc(N5CCOCC5)c34)c2)CC1 [Compound 13] | 9.01 | 8.66 | 0.06 | 8.00 | 7.55 | 4.09 | -0.65 | 0.00 | 1.12
O=C(Nc1cccc(-c2c[nH]c3ncnc(N4CCOCC4)c23)c1)C1(C(=O)Nc2ccc(F)c(Br)c2)CC1 [Compound 19] | 0.00 | 6.49 | -0.09 | 4.87 | 0.00 | 1.78 | 2.17 | 0.10 | 1.25
